From patent publication US4472414A, “Spiro[indolo[1,7-ab][1,5]benzodiazepine-2,4'-piperidines]” (Hoechst-Roussel Pharmaceuticals Incorporated, priority 1983, dated 1984)
Where a name gives a salt, the structure may show the parent alone.

System: 2-phenyl-1,4-benzoquinone-induced writhing
Assay: 2-phenyl-1,4-benzoquinone-induced writhing test in mice (Phenylquinone Writhing), analgesic activity
Assay type: in vivo
Conditions: Mus musculus, sc, read-out: Inhibition of Writing ED50
Excerpt: Compounds of Formula I of the present invention, namely, compounds of Formulas II, III and IV are useful as analgesic agents due to their ability to alleviate pain in mammals. […] Exptl. Biol. Med., 95, 729 (1957)].

Question: CC1c2cccc3c2N(CC32CCN(C)CC2)c2ccccc2N1C(=O)CCN(C)C (stereo not shown) [7-(N,N-dimethyl-3-aminopropionyl)-1',6-dimethyl-1,2,6,7-tetrahydro-spiro[indolo[1,7-ab][1,5]benzodiazepine-2,4'-piperidine]dihydrobromide] was tested. Which ED50 did it give?
Answer: The ED50 was 28.4 mg/kg.

Question: CN1CCC2(CC1)CN1c3ccccc3N=Cc3cccc2c31 [1,2-Dihydro-1'-methyl-spiro[indolo[1,7-ab][1,5]benzodiazepine-2,4'-piperidine]dihydrochloride] was tested. Which ED50 did it give?
Answer: The ED50 was 12.1 mg/kg.

Question: CC1Nc2ccccc2N2CC3(CCN(C)CC3)c3cccc1c32 (stereo not shown) [1',6-Dimethyl-1,2,6,7-tetrahydro-spiro[indolo[1,7-ab][1,5]benzodiazepine-2,4'-piperidine]dihydrochloride] was tested. Which ED50 did it give?
Answer: Its ED50 is 9.7 mg/kg.

Question: CC1=Nc2ccccc2N2CC3(CCN(C)CC3)c3cccc1c32 [1,2-Dihydro-1',6-dimethyl-spiro[indolo[1,7-ab][1,5]benzodiazepine-2,4'-piperidine]dihydrochloride] was tested. Which ED50 did it give?
Answer: Its ED50 is 4.7 mg/kg.
